From EP1977646A1, “Insecticidal hydroxyethyl thlourea derivatives” (Bayer CropScience AG, priority 2007, dated 2008) come the findings set out here.

The structures appear in SMILES notation. Where two headings read alike, the source gives them in different places.

Data set [1] can be described thus: logP (HCOOH) by HPLC, EEC-Directive 79/831, Annex V.A8. To be noted: gradient method; for chromatographic logP: hplc acetonitrile/0.1% hcooh. Type of data set: physicochemical. The procedure: A stirred mixture of 600 mg (3,4 mmol) 4-fluoro-1-aminoindane and 778 mg (4.37 mmol) 1,1-thiocarbonyldiimidazole in dichloromethane was kept at ambient temperature for 1,5 h. After addition of 230 mg (3.74 mmol) 2-aminoethanol dissolved in 3 mL dichloromethane the resulting mixture was stirred for further 72 h at ambient temperature. Then, the mixture was diluted with ethyl acetate and washed with 1 N HCl and saturated NaHCO3 solution. After phase separation, the organic phase was dried with solid Na2SO4, filtered and evaporated under reduced pressure. The residue was purified by chromatography (silica gel, cyclohexane/ethyl acetate = vol. 5:1) to afford 350 mg 1-(4-fluoro-2,3-dihydro-1H-inden-1-yl)-3-(2-hydroxyethyl)thiourea. The NMR spectrum was consistent with the proposed structure. logP^(1)) = 1,74 [formula] ^1) logP (HCOOH) determined according to EEC-Directive 79/831, Annex V.A8 using HPLC (gradient method, acetonitrile/0.1% HCOOH)
logP (HCOOH) determined according to EEC-Directive 79/831, Annex V.A8 using HPLC (gradient method, acetonitrile/0.1% HCOOH)

Data set [2] concerns Myzus persicae. The experiment in a line: Myzus persicae - test (spray application). Type of data set: in vivo. To be noted: application rate of 500 g/ha, Chinese cabbage leaf-disks sprayed, all instars. The procedure:
Myzus persicae - test; (spray application)
(§1) To produce a suitable preparation of active compound, 1 part by weight of active compound is mixed with the stated amount of solvent and emulsifier, and the concentrate is diluted with emulsifier-containing water to the desired concentration.
Chinese cabbage (Brassica pekinesis) leaf-disks infected with all instars of the green peach aphid (Myzus persicae), are sprayed with a preparation of the active ingredient at the desired concentration.
After the specified period of time, mortality in % is determined. 100% means that all aphids have been killed; 0% means that none of the aphids have been killed.

The test system of data set [3] is Myzus persicae. The experiment in a line: Myzus-Test; oral (spray application). Type of data set: in vivo. On the procedure: Myzus-Test; oral (spray application)
To produce a suitable preparation of active compound, 1 part by weight of active compound ist mixed with the stated amount of solvent and emulsifier, and the concentrate is diluted with emulsifier-containing water to the desired concentration.
Containers are infested with a mixed population of the green peach aphid (Myzus persicae), the aphids suck on a preparation of the active compound at the desired concentration.
After the specified period of time, mortality in % is determined. 100 % means that all aphids have been killed; 0 % means that none of the aphids have been killed.

For the next data set, the system named is Tetranychus urticae. Kind of data set: Tetranychus urticae - test; OP-resistant (spray application). The conditions noted are these: in Phaseolus vulgaris, read-out: activity (mortality in %). The format is in vivo. The procedure: Tetranychus urticae - test; OP-resistant (spray application)
as §1
French bean (Phaseolus vulgaris) which are heavily infested with all stages of the two spotted spidermite (Tetranychus urticae), are sprayed with a preparation of the active ingredient at the desired concentration.
After the specified period of time, mortality in % is determined. 100% means that all spider mites have been killed and 0% means that none of the spider mites have been killed.

The test system of data set [4] is Myzus persicae. The experiment in a line: Myzus persicae - test (drench). The format is in vivo. To be noted: soil, application rate of 20 ppm, cabbage plants drenched. The procedure: as §1
Cabbage plants (Brassica oleracea) which are heavily infested by the green peach aphid (Myzus persicae) are treated by being drenched with the preparation of the active compound of the desired concentration.
After the specified period of time, mortality in % is determined. 100 % means that all the aphids have been killed; 0 % means that none of the aphids have been killed.

The subject of another data set is Aphis gossypii. Kind of data set: Aphis gossypii - test (leaf dip). To be noted: foliar, application rate of 20 ppm, cotton leaves dipped. Type of data set: in vivo. On the procedure: Aphis gossypii - test [table] To produce a suitable preparation of active compound, 1 part by weight of active compound is mixed with the stated amount of solvent and emulsifier, and the concentrate is diluted with emulsifier-containing water to the desired concentration. Cotton leaves (Gossypium hirsutum) which are heavily infested by the cotton aphid (Aphis gossypii) are treated by being dipped into the preparation of the active compound of the desired concentration. After the specified period of time, the mortality in % is determined. 100 % means that all the aphids have been killed; 0 % means that none of the aphids have been killed.

Where [5] appears, read: application rate of 100 ppm, aphids suck on preparation, mixed population.

On to `OCCNC(=S)N[C@@H]1CCc2ccccc21` [1-3], for which the chromatographic logP (as a rule, lipophilicity estimated from chromatographic retention) in data set [1] turned out to be 1.65.

With `OCCNC(=S)N[C@H]1CCc2ccccc21` [1-2, 1-[(1S)-2,3-dihydro-1H-inden-1-yl]-3-(2-hydroxyethyl)thiourea], in data set [1] (acetonitrile/0.1% HCOOH), the “logP (HCOOH)” value is listed as 1,56. In data set [1], the chromatographic logP came out at 1.65. The mortality – broadly, the percentage killed – at 500 g/ha with Myzus persicae [2] is at least 80%. The molecule also came in with a mortality at 100 ppm with Myzus persicae [3] (setting [5]) of at least 80%. Further, the mortality at 100 g/ha in the data set with Tetranychus urticae is at least 80%. The mortality at 20 ppm in the data set on Myzus persicae [4] and with Aphis gossypii was at least 80% in each case.

Turning to `OCCNC(=S)NC1CCOc2ccccc21` (stereo not shown) [3-1], the chromatographic logP in data set [1] was 1.42. The mortality at 500 g/ha with Myzus persicae [2] was at least 80%.

The molecule `OCCNC(=S)NC1CCc2c(F)ccc(F)c21` (stereo not shown) [1-83] showed a chromatographic logP in data set [1] of 1.68.

In turn, `OCCNC(=S)N[C@H]1CCCc2ccccc21` [4-2] showed a chromatographic logP in data set [1] of 1.79. The same molecule had a mortality at 500 g/ha in the data set with Myzus persicae [2] of at least 80%. The molecule further yielded a mortality at 20 ppm with Aphis gossypii of at least 80%.

As to `OCCN(CCO)C(=S)N[C@H]1CCc2ccccc21` [1-105], in data set [1], the chromatographic logP worked out at 1.64.

Molecule `OCCNC(=S)NC1CCc2c(F)cccc21` (stereo not shown) [1-14, 1-(4-fluoro-2,3-dihydro-1H-inden-1-yl)-3-(2-hydroxyethyl)thiourea] displayed a chromatographic logP in data set [1] of 1.74. In addition, the mortality at 500 g/ha in the data set with Myzus persicae [2] is at least 80%. The same molecule had a mortality at 20 ppm with Aphis gossypii of at least 80%.

In turn, `COCCNC(=S)NC1CCc2c(F)cccc21` (stereo not shown) [1-17] gave a chromatographic logP in data set [1] of 2.21. In the data set on Myzus persicae [2], this molecule returned a mortality at 500 g/ha of at least 80%. This molecule registered a mortality at 100 ppm in the data set with Myzus persicae [3] of at least 80%.

For `COCCNC(=S)NC1CCc2ccccc21` (stereo not shown) [1-4, 1-(2,3-dihydro-1H-inden-1-yl)-3-(2-methoxyethyl)thiourea], in data set [1], the chromatographic logP stood at 2.07. In the data set on Myzus persicae [2], this molecule displayed a mortality at 500 g/ha of at least 80%. In addition, in the data set on Myzus persicae [3] (setting [5]), the mortality at 100 ppm was at least 80%.

As for `CC(CO)NC(=S)N[C@H]1CCc2ccccc21` (stereo partly shown) [1-21], the chromatographic logP in data set [1] is 1.78.
